The test system of data set [1] is MDA-MB-231. Briefly: Cytotoxicity against human MDA-MB-231 cells assessed as reduction in cell viability after 96 hrs by MTT assay. In kind it is functional, cell-based. The note with it: MDA-MB-231, 96 h.
The test system of data set [2] is MDA-MB-231. Kind of data set: Cytotoxicity against human MDA-MB-231 cells assessed as reduction in cell viability after 48 hrs by MTT assay. In kind it is functional, cell-based. The note with it: MDA-MB-231, 48 h. On the technique in general: Tetrazolium assays rely on reduction of a dye to a coloured formazan, in cell work by metabolically active cells.
Data set [3] relates to MCF7. Kind of data set: Cytotoxicity against human MCF7 cells assessed as reduction in cell viability after 96 hrs by MTT assay. In kind it is functional, cell-based. The conditions noted are these: MCF7, 96 h.
The test system of data set [4] is MEF. Kind of data set: Cytotoxicity against MEFs assessed as reduction in cell viability up to 100 uM after 48 to 96 hrs by MTT assay. Type of data set: cell-based. The conditions noted are these: mouse.
The test system of data set [5] is MCF7. Kind of data set: Cytotoxicity against human MCF7 cells assessed as reduction in cell viability after 48 hrs by MTT assay. In kind it is functional, cell-based. The note with it: MCF7, 48 h.
Data set [6] deals with MCF7. Briefly: Cytotoxicity against human MCF7 cells assessed as induction of cell death at 0.5 to 25 uM after 48 hrs by MTT assay. Type of data set: functional, cell-based.
The subject of data set [7] is MDA-MB-231. Briefly: Cytotoxicity against human MDA-MB-231 cells assessed as induction of cell death at 0.5 to 25 uM after 48 hrs by MTT assay. Type of data set: functional, cell-based.
In data set [8] the test system is MCF7. Kind of data set: Ratio of tamoxifen IC50 to compound IC50 for human MCF7 cells assessed as reduction in cell viability after 96 hrs by MTT assay. Type of data set: functional.
Data set [9] has as its system MDA-MB-231. Kind of data set: Ratio of tamoxifen IC50 to compound IC50 for human MDA-MB-231 cells assessed as reduction in cell viability after 96 hrs by MTT assay. Type of data set: functional.
Data set [10] deals with MCF7. Briefly: Induction of cell death in human MCF7 cells at 10 to 50 uM after 24 hrs using calcein AM and ethidium homodimer-1 by live/dead assay. In kind it is functional.
Data set [11] deals with MDA-MB-231. Kind of data set: Induction of cell death in human MDA-MB-231 cells at 10 to 50 uM after 24 hrs using calcein AM and ethidium homodimer-1 by live/dead assay. Type of data set: functional, cell-based.
Data set [12] relates to MDA-MB-231. Briefly: Ratio of ospemifene IC50 to compound IC50 for human MDA-MB-231 cells assessed as reduction in cell viability after 96 hrs by MTT assay. In kind it is functional.
The subject of data set [13] is MCF7. Briefly: Ratio of ospemifene IC50 to compound IC50 for human MCF7 cells assessed as reduction in cell viability after 96 hrs by MTT assay. Type of data set: functional.
Data set [14] concerns MCF7. Briefly: Induction of cell death in human MCF7 cells at 10 uM after 24 hrs using calcein AM and ethidium homodimer-1 by live/dead assay. Type of data set: functional.
The test system of data set [15] is MDA-MB-231. Briefly: Induction of cell death in human MDA-MB-231 cells at 10 uM after 24 hrs using calcein AM and ethidium homodimer-1 by live/dead assay. Type of data set: functional.

Calls of active or inactive are those of the source. The rule behind the calls is not given here. Some results are limits rather than exact numbers.

Results on nine compounds are retold here after ChEMBL document CHEMBL3351602 (Eur J Med Chem, 2014).

Consider `OCCOc1ccc(/C(=C(/CCCl)c2ccccc2)c2ccccc2)cc1` [OSPEMIFENE], for which the half-maximal inhibitory concentration (IC50) is greater than 100 µM in data set [1], greater than 100 µM in data set [2], 55 µM in [3] and greater than 100 µM in data set [5]. Besides, the Activity result in [4] was “Non-toxic”.
For the compound `CC/C(=C(\c1ccccc1)c1ccc(OCCN(C)C)cc1)c1ccccc1` [TAMOXIFEN], in [4], the Activity entry was “Non-toxic”.
On to `[N-]=[N+]=NCC/C(=C(\c1ccccc1)c1ccc(OCCO)cc1)c1ccccc1`, for which the IC50 in data set [1], in data set [2], in data set [3] and in data set [5] was greater than 100 µM throughout. The result in data set [6] was Active.
With `O=C(NCC/C(=C(\c1ccccc1)c1ccc(OCCO)cc1)c1ccccc1)Oc1ccccc1`, the 50% inhibitory concentration (IC50) in [1] is 62.3 µM; in data set [2], greater than 100 µM; in [3], 50 µM; in data set [5], 76 µM. The outcome in data set [7] and in data set [6] was Active.
As to `[N-]=[N+]=NCCOc1ccc(/C(=C(/CCN=[N+]=[N-])c2ccccc2)c2ccccc2)cc1`, the result in data set [7] and in [6] was inactive.
Turning to `NCC/C(=C(\c1ccccc1)c1ccc(OCCO)cc1)c1ccccc1`, the IC50 worked out at 14.5 µM in data set [1], 25 µM in data set [2], 12.4 µM in data set [3] and 15.9 µM in data set [5]. In addition, the “Ratio IC50” value in [8] is greater than 5; in data set [9], greater than 5; in data set [12], 5; in data set [13] it was 5. For the same compound, the result in data set [7], in data set [6] and in data set [11] was Active. Besides, the Activity entry in data set [4] is on record as “Non-toxic”; in data set [10], 50%.
Regarding `[N-]=[N+]=NCCOc1ccc(/C(=C(/CCCl)c2ccccc2)c2ccccc2)cc1`, the outcome in [7] and in data set [6] was inactive.
On to `NCCOc1ccc(/C(=C(/CCN)c2ccccc2)c2ccccc2)cc1`, for which the half-maximal inhibitory concentration (IC50) turned out to be 13.4 µM in data set [1], 17.1 µM in data set [2], 11.2 µM in data set [3] and 23.6 µM in data set [5]. The “Ratio IC50” value in data set [8] is given as greater than 5; in data set [9], greater than 5; in data set [12], 5; in [13], 5. Besides, the result in data set [7], in data set [6], in [10] and in data set [11] was Active. Besides, the Activity in [14] is recorded as 70%; in data set [4] it was “Non-toxic”; in data set [15], 70%.
On to `CS(=O)(=O)OCCOc1ccc(/C(=C(/CCCl)c2ccccc2)c2ccccc2)cc1`, for which the result in [7] and in data set [6] was inactive.

A word on the IC50: it is the concentration that inhibits the measured activity by half.
